Article PMC6353801, “Enhanced Anti-diabetic Effect of Berberine Combined With Timosaponin B2 in Goto-Kakizaki Rats, Associated With Increased Variety and Exposure of Effective Substances Through Intestinal Absorption” (Frontiers in Pharmacology, 2019)
Where “and” joins values, the source holds several entries; their conditions need not be identical. Equal values may be shown once.

Tests used:
[1] = PK in systemic plasma of GK rats after repeated oral administration (day 35); type: in vivo, rat; conditions: GK rats, systemic plasma; for Cmax / half-life / Tmax / AUC: male, GK, rat, po, mean ± SE, n = 8; for Cmax / half-life / Tmax: plasma; for half-life: read-out: T1/2 (converted); for Tmax: read-out: Tmax; for AUC: read-out: AUC
Procedure: Analyses were performed on a Shimadzu LCMS-8030 triple quadrupole system (Shimadzu Corp., Japan) equipped with an electrospray ionization source. Data processing was performed using Shimadzu LC–MS LabSolutions (version 5.42 SP4, Shimadzu, Japan). Chromatographic separation was carried out on a Waters CORTECS C18+ column (100 mm × 2.1 mm, 2.7 μm, Ireland) with a security guard C18+ column (5 mm × 2.1 mm, 2.7 μm, Ireland). […] The gradient elution was 85% B from 0 to 2.5 min, 85% B–83% B from 2.5 to 3.0 min, 83% B from 3.0 to 6.0 min, 83% B–40% B from 6.0 to 6.5 min, 40% B from 6.5 to 7.0 min, 40% B–85% B from 7.0 to 7.2 min, and 85% B from 7.2 to 12 min. […] The optimized precursor-to-product ion pairs (collision energy) were in the positive mode as follows: m/z 579.20–255.15 (28 V) for TB-2 (at 4.1 min) and timosaponin A3 (at 6.1 min) and 271.50–154.70 (25 V) for tolbutamide (IS, at 5.8 min). […] If the concentrations of the compounds were over the linear range, the relevant samples were diluted with blank matrix by a factor of 10. […] Four-week-old male GK rats were fed a high-fat diet, and age-matched non-diabetic Wistar rats were fed standard chow as the control group. Under these dietary conditions, blood glucose was estimated each week for 7 weeks in 12-h fasted rats using a portable glucometer (One Touch Sure Step Meter, Johnson & Johnson, United States) by drawing the blood from the tail vein. GK rats with fasting blood glucose levels (FBG) above 16.7 mM were considered as diabetic rats, and only uniformly diabetic rats were used in this study. […] All the drugs were suspended in 0.5% carboxymethylcellulose sodium (CMC-Na) solution for oral gavage (10 ml/kg) once per day (at 9:00) for 6 weeks. Simultaneously, the Wistar and vehicle groups received vehicle over the treatment period. Food consumption and body weight were measured every week throughout the experimental periods. Non-fasting blood glucose (NFBG) levels were determined by collecting blood samples from the tail vein (at 9:00), and FBG levels were determined after a 6-h fast (at 15:00) on days 0, 7, 14, 21, and 42. On day 28, an oral glucose tolerance test (OGTT) was performed after an overnight fast. […] On day 42, the rats were anesthetized with urethane (1.4 g/kg, dissolved in saline) after an overnight fast and were sacrificed to collect the liver, kidney, heart, and spleen. The organs were weighed after washing with saline and drying to calculate the organ coefficient, namely, the ratio between the weight of organs and the body in each rat. The liver samples were diluted with 3 volumes (0.5 g/1.5 ml) of saline and homogenized. The liver homogenates and plasma samples (100 μl) were precipitated with three volumes of acetonitrile (containing 10 μg/ml tolbutamide). […] Then, 100 μl of the original mobile phase was added, and the samples were vortexed for 5 min and centrifuged at 13,000 rpm at 4°C for 10 min. Finally, the supernatant was used for HPLC–QQQ–MS/MS analysis. A non-compartmental analysis was performed using WinNonlin software (Pharsight 6.2, Raleigh, NC, United States) to calculate the PK parameters. The significance of PK parameters in normal rats, generated by the sparse method in WinNonlin, was assessed with Welch’s unequal variances t-test. The significance of the other results was assessed using two-tailed Student’s t-tests. Statistical significance was defined as P < 0.05.

[2] = PK in systemic plasma of Wistar rats (after hepatic clearance) and liver extraction ratio; conditions: for ERliver (liver extraction ratio): (AUCpor−AUCsys)/AUCpor; for Tmax / AUC / Cmax / half-life: male, Wistar, rat, po; for Tmax: n = 5
[3] = PK in portal vein plasma of Wistar rats (before hepatic clearance); conditions: for AUC / Cmax / Tmax / half-life: male, Wistar, rat, po
[4] = Liver distribution in Wistar rats; conditions: liver; for AUC ± SE / Cmax / half-life / Tmax: n = 5; for Cmax / half-life / Tmax: male, Wistar, rat, po; for Cmax: Cmax ± SE; for half-life: T1/2, Wistar rats
[5] = 33.3 mg/kg, day 35, oral BBR+TB-2 (66.7+33.3 mg/kg)
[6] = 66.7 mg/kg, day 35, oral BBR 66.7 mg/kg alone
[7] = Wistar rats, TB-2+BBR treatments
[8] = 33.3 mg/kg, Wistar rats, single oral BBR+TB-2 (66.7+33.3 mg/kg)
[9] = 66.7 mg/kg, Wistar rats, single oral BBR 66.7 mg/kg alone

Compound: COc1ccc2cc3[n+](cc2c1O)CCc1cc2c(cc1-3)OCO2 [M1, Berberrubine]
- levels of M1 as share of the parent drug ([1]; BBR treatments): 75%
- levels of M1 as share of the parent drug ([1]; TB-2+BBR treatments): 61%
- increase in AUC on combination vs single treatment ([1]; day 35): didn’t significantly increase
- increase in Cmax on combination vs single treatment ([1]; day 35): didn’t significantly increase
- Cmax [1, 5]: 6.6 ± 2 ng/mL
- half-life [1, 5]: 23.9 ± 7.4 h
- Tmax [1, 5]: 9.4 ± 1.2 h
- Cmax [1, 6]: 4.3 ± 1.7 ng/mL
- half-life [1, 6]: 100 ± 92.2 h
- Tmax [1, 6]: 10.4 ± 3.1 h
- AUC [1, 5]: 94.9 ± 26.4 ng·h/mL
- AUC [1, 6]: 56.3 ± 18.5 ng·h/mL
- ERliver (liver extraction ratio) ([2]; Wistar rats, oral BBR 66.7 mg/kg alone): 81.9%
- ERliver (liver extraction ratio) ([2]; Wistar rats, oral BBR+TB-2 (100 mg/kg)): 81.3%
- AUC in portal vein plasma, fold higher than in systemic plasma ([2]; Wistar rats, BBR treatments): approximately fivefold
- AUC in portal vein plasma, fold higher than in systemic plasma [2, 7]: approximately fivefold
- increase in AUC on co-administration vs single treatment ([2]; Wistar rats, systemic plasma): 95%
- AUC ratio between M1 and BBR ([2]; Wistar rats, systemic plasma, BBR treatments): 40.2%
- AUC ratio between M1 and BBR ([2]; Wistar rats, systemic plasma, TB-2+BBR treatments): 46.8%
- Tmax ([2]; plasma, 66.7 mg/kg, Wistar rats, systemic plasma, single oral BBR 66.7 mg/kg alone): 6 h
- AUC ([2]; systemic plasma, 66.7 mg/kg): 10.1 ± 0.6 ng·h/mL
- Cmax ([2]; systemic plasma, 66.7 mg/kg): 1 ± 0.2 ng/mL
- half-life ([2]; systemic plasma, 66.7 mg/kg): 5.8 h
- AUC ([2]; systemic plasma, 100 mg/kg): 19.7 ± 2.9 ng·h/mL
- Cmax ([2]; systemic plasma, 100 mg/kg): 2 ± 0.2 ng/mL
- half-life ([2]; systemic plasma, 100 mg/kg): 1.9 h
- Tmax ([2]; systemic plasma, 100 mg/kg, Wistar rats, systemic plasma, single oral BBR+TB-2 (100 mg/kg)): 9 h
- increase in AUC on co-administration vs single treatment ([3]; Wistar rats): 89%
- increase in Cmax on co-administration vs single treatment ([3]; Wistar rats): 105%
- AUC ratio between M1 and BBR ([3]; Wistar rats, BBR treatments): 28.1%
- AUC ratio between M1 and BBR [3, 7]: 24.9%
- AUC ([3]; 66.7 mg/kg): 55.7 ± 3.5 ng·h/mL
- Cmax ([3]; 66.7 mg/kg): 3.5 ± 1 ng/mL
- Tmax ([3]; 66.7 mg/kg): 6 h
- half-life ([3]; 66.7 mg/kg): 9.7 h
- AUC ([3]; 100 mg/kg): 106 ± 6.2 ng·h/mL
- Cmax ([3]; 100 mg/kg): 7.2 ± 1.5 ng/mL
- Tmax ([3]; 100 mg/kg): 9 h
- half-life ([3]; 100 mg/kg): 7 h
- increase in AUC on co-administration vs single treatment ([4]; Wistar rats): 282%
- increase in Cmax on co-administration vs single treatment ([4]; Wistar rats): 109%
- exposure (AUC) of metabolite as share of the exposure of BBR [4, 7]: 77% and 77.5%
- AUC ± SE ([4]; Wistar rats, single oral BBR 66.7 mg/kg alone): 932.5 ± 155.4 h ∗ ng/g
- AUC ± SE ([4]; Wistar rats, single oral BBR+TB-2 (66.7+33.3 mg/kg)): 3565.3 ± 256.7^∗∗∗ h ∗ ng/g
- exposure (AUC) of metabolite as share of the exposure of BBR ([4]; Wistar rats, single treatment (On TB-2 treatments)): 29% and 28.6%
- Cmax [4, 8]: 238 ± 39.5 ng/g
- half-life ([4]; 33.3 mg/kg, single oral BBR+TB-2 (66.7+33.3 mg/kg)): 4.2 h
- Tmax [4, 8]: 6 h
- Cmax [4, 9]: 114 ± 10.6 ng/g
- half-life ([4]; 66.7 mg/kg, single oral BBR 66.7 mg/kg alone): 4.6 h
- Tmax [4, 9]: 4 h
